We go through 6 molecules from patent US7862798B2, “Vitamin-targeted imaging agents” (Endocyte, Inc., priority 2002, dated 2011).

One series deals with FR-positive KB tumors. Kind of series: Tissue distribution, KB tumor model (Example 16, Table 5). In kind it is in vivo, nude mice. The conditions noted are these: for Blood / Heart / Kidney (one) / Liver & Gall Bladder / Lungs / Muscle / Spleen / Stomach, Intestines & Contents / Tumor: 99mTc-labelled conjugate, 4 hours post i.v.; for accumulation in FR-positive KB tumors and kidneys on co-administration of free folate: about 20-fold excess of free folate. As for the experimental part: The protocols used in this example are similar to those described in Example 11. The ability of ^99mTc-EC11 (peptide-A1), ^99mTc-EC13 (peptide-A3), and ^99mTc-EC14 (peptide-A2) to target tumors in vivo was assessed using the FR-positive KB tumor model.
FR-positive KB tumor cells (0.25×10^6 per animal) were inoculated subcutaneously in the intracapsular region. Fourteen days after tumor cell inoculation, the animals (n=4/group) were injected intravenously with ^99mTc-EC11, ^99mTc-EC13, or ^99mTc-EC14 at the doses (about 12 μg/kg) of the conjugates shown in Table 5 below. Stocks of ^99mTc-EC11, ^99mTc-EC13, and ^99mTc-EC14 solutions were prepared on the day of use as described above. About a 20-fold excess of free folate (about 200 μg/kg) was co-administered to control animals (n=4/group). […] Selected tissues were removed, weighed, and counted in an automatic gamma counter to determine ^99mTc distribution. Uptake of the radiopharmaceutical in terms of percentage injected dose of wet weight tissue (% ID/g) was calculated by reference to standards prepared from dilutions of the injected preparation.

The subject of another series is FR-positive M109 tumors. Put plainly: Tissue distribution, subcutaneous M109 tumors (Example 11). As for the experimental part: The ability of ^99mTc-EC20 to target tumors in vivo was assessed using a FR-positive M109 model.
Four to five week-old mice (Balb/c strain) were purchased from Harlan Sprague Dawley, Inc. (Indianapolis, Ind.) and were maintained on a folate-free diet for a total of three weeks prior to the experiment. Syngeneic, FR-positive M109 tumor cells (1×10^6 per animal) were inoculated in the subcutis of the right axilla two weeks prior to the experiment.
Animals received an approximate 40 μmol/kg i.v. dose of test article in 100 μL volume via a lateral tail vein during brief diethyl ether anesthesia. Four hours post-injection, animals were sacrificed by CO2 asphyxiation, and dissected. Selected tissues were removed, weighed, and counted to determine ^99mTc distribution. CPM values were decay-corrected, and results were tabulated as % injected dose per gram of wet weight tissue.

Where [1] appears, read: folic acid dihydrate co-injected (about 200 μg/kg).
[2] abbreviates: folic acid dihydrate co-injected.
The mark [3] stands for this setting: 4 hr post i.v., + Folic acid (100 equivalents).
The mark [4] stands for this setting: 4 hr post intravenous injection.

Consider `Nc1nc2ncc(CNc3ccc(C(=O)N[C@@H](CCC(=O)N[C@@H](CCC(=O)NC[C@H](N)C(=O)N[C@@H](CC(=O)O)C(=O)N[C@@H](CS)C(=O)O)C(=O)O)C(=O)O)cc3)nc2c(=O)[nH]1` [EC11], for which, in the series on FR-positive KB tumors (setting [1]), the Blood was 0.25 ± 0.01 Percentage of Injected 99mTc D, the Heart is on record as 0.36 ± 0.03 Percentage of Injected 99mTc D, the “Kidney (one)” value is given as 55.5 ± 2.3 Percentage of Injected 99mTc D and the “Liver & Gall Bladder” value is listed as 1.6 ± 0.1 Percentage of Injected 99mTc D. In the series with FR-positive KB tumors (setting [1]), the Lungs is listed as 0.35 ± 0.03 Percentage of Injected 99mTc D; the Muscle was 0.38 ± 0.06 Percentage of Injected 99mTc D; the Spleen is 0.23 ± 0.01 Percentage of Injected 99mTc D; the “Stomach, Intestines & Contents” value was 1.1 ± 0.3 Percentage of Injected 99mTc D. Besides, the Tumor in the series with FR-positive KB tumors (setting [1]) is recorded as 1.47 ± 0.24 Percentage of Injected 99mTc D. Also, in the series with FR-positive KB tumors (no folic acid), the Blood was 0.21 ± 0.01 Percentage of Injected 99mTc D, the Heart was 2.5 ± 0.3 Percentage of Injected 99mTc D, the “Kidney (one)” value is reported as 67.8 ± 6.9 Percentage of Injected 99mTc D and the “Liver & Gall Bladder” value is 5.4 ± 1.4 Percentage of Injected 99mTc D. In the series with FR-positive KB tumors (no folic acid), the Lungs was 1.2 ± 0.2 Percentage of Injected 99mTc D; the Muscle was 1.8 ± 0.1 Percentage of Injected 99mTc D; the Spleen was 0.38 ± 0.03 Percentage of Injected 99mTc D; the “Stomach, Intestines & Contents” value is 1.4 ± 0.1 Percentage of Injected 99mTc D. In the series on FR-positive KB tumors (no folic acid), the Tumor/Blood was determined as 13.7 ± 2.1, the Tumor/Kidney is recorded as 0.043 ± 0.005, the Tumor/Liver came out at 0.57 ± 0.14 and the Tumor/Muscle amounted to 1.6 ± 0.3. Besides, in the series with FR-positive KB tumors (no folic acid, KB tumor), the Tumor is recorded as 2.95 ± 0.57 Percentage of Injected 99mTc D. Moreover, in the series with FR-positive KB tumors (setting [2]), the Tumor/Blood is on record as 5.9 ± 0.9, the Tumor/Kidney is on record as 0.027 ± 0.005, the Tumor/Liver amounted to 0.94 ± 0.09 and the Tumor/Muscle was 3.9 ± 0.08.

With `Nc1nc2ncc(CNc3ccc(C(=O)N[C@@H](CCC(=O)NC[C@H](N)C(=O)N[C@@H](CO)C(=O)N[C@@H](CS)C(=O)O)C(=O)O)cc3)nc2c(=O)[nH]1` [EC13], in the series on FR-positive KB tumors (setting [1]), the Blood is reported as 0.16 ± 0.02 Percentage of Injected 99mTc D, the Heart is recorded as 0.20 ± 0.03 Percentage of Injected 99mTc D, the “Kidney (one)” value is given as 29.1 ± 2.2 Percentage of Injected 99mTc D and the “Liver & Gall Bladder” value is 0.65 ± 0.04 Percentage of Injected 99mTc D. For the same molecule, in the series on FR-positive KB tumors (setting [1]), the Lungs is on record as 0.23 ± 0.02 Percentage of Injected 99mTc D; the Muscle is 0.21 ± 0.03 Percentage of Injected 99mTc D; the Spleen is given as 0.15 ± 0.02 Percentage of Injected 99mTc D; the “Stomach, Intestines & Contents” value is listed as 3.7 ± 0.7 Percentage of Injected 99mTc D. Moreover, the Tumor in the series with FR-positive KB tumors (setting [1]) is recorded as 1.67 ± 0.24 Percentage of Injected 99mTc D. For the same molecule, in the series on FR-positive KB tumors (no folic acid), the Blood is 0.25 ± 0.03 Percentage of Injected 99mTc D, the Heart is 1.6 ± 0.1 Percentage of Injected 99mTc D, the “Kidney (one)” value is listed as 54.5 ± 2.4 Percentage of Injected 99mTc D and the “Liver & Gall Bladder” value is given as 3.5 ± 0.7 Percentage of Injected 99mTc D. In the series on FR-positive KB tumors (no folic acid), the Lungs was 1.1 ± 0.1 Percentage of Injected 99mTc D; the Muscle is recorded as 1.7 ± 0.2 Percentage of Injected 99mTc D; the Spleen is 0.39 ± 0.06 Percentage of Injected 99mTc D; the “Stomach, Intestines & Contents” value is listed as 2.5 ± 0.2 Percentage of Injected 99mTc D. In the series on FR-positive KB tumors (no folic acid), this molecule showed a Tumor/Blood of 22.5 ± 1.4, a Tumor/Kidney of 0.10 ± 0.01, a Tumor/Liver of 1.6 ± 0.2 and a Tumor/Muscle of 3.3 ± 0.3. Further, the Tumor in the series on FR-positive KB tumors (no folic acid, KB tumor) was 5.46 ± 0.45 Percentage of Injected 99mTc D. In the series on FR-positive KB tumors (setting [2]), the Tumor/Blood is 10.2 ± 1.5.^, the Tumor/Kidney came to 0.058 ± 0.010, the Tumor/Liver is given as 2.6 ± 0.3 and the Tumor/Muscle came out at 8.2 ± 2.0.

Consider `Nc1nc2ncc(CNc3ccc(C(=O)N[C@@H](CCC(=O)N[C@H](CCC(=O)NC[C@H](N)C(=O)N[C@@H](CC(=O)O)C(=O)N[C@@H](CS)C(=O)O)C(=O)O)C(=O)O)cc3)nc2c(=O)[nH]1` [EC14, Pte-D-Glu-D-Glu-βDpr-Asp-Cys], for which, in the series with FR-positive KB tumors (setting [1]), the Blood is reported as 0.12 ± 0.02 Percentage of Injected 99mTc D, the Heart is given as 0.24 ± 0.01 Percentage of Injected 99mTc D, the “Kidney (one)” value was 20.6 ± 2.4 Percentage of Injected 99mTc D and the “Liver & Gall Bladder” value is 0.66 ± 0.07 Percentage of Injected 99mTc D. In addition, in the series on FR-positive KB tumors (setting [1]), the Lungs was 0.24 ± 0.02 Percentage of Injected 99mTc D; the Muscle is on record as 0.26 ± 0.02 Percentage of Injected 99mTc D; the Spleen is on record as 0.15 ± 0.01 Percentage of Injected 99mTc D; the “Stomach, Intestines & Contents” value is listed as 0.50 ± 0.10 Percentage of Injected 99mTc D. In addition, the Tumor in the series with FR-positive KB tumors (setting [1]) was 2.0 ± 0.5 Percentage of Injected 99mTc D. Further, in the series on FR-positive KB tumors (no folic acid), the Blood is 0.19 ± 0.02 Percentage of Injected 99mTc D, the Heart is given as 3.0 ± 0.5 Percentage of Injected 99mTc D, the “Kidney (one)” value is given as 44.2 ± 6.4 Percentage of Injected 99mTc D and the “Liver & Gall Bladder” value was 4.5 ± 1.0 Percentage of Injected 99mTc D. Further, in the series on FR-positive KB tumors (no folic acid), the Lungs is reported as 1.6 ± 0.3 Percentage of Injected 99mTc D; the Muscle was 2.4 ± 0.4 Percentage of Injected 99mTc D; the Spleen is given as 0.41 ± 0.06 Percentage of Injected 99mTc D; the “Stomach, Intestines & Contents” value is reported as 1.4 ± 0.1 Percentage of Injected 99mTc D. In the series with FR-positive KB tumors (no folic acid), this molecule gave a Tumor/Blood of 29.3 ± 5.2, a Tumor/Kidney of 0.13 ± 0.03, a Tumor/Liver of 1.3 ± 0.3 and a Tumor/Muscle of 2.4 ± 0.6. For the same molecule, the Tumor in the series on FR-positive KB tumors (no folic acid, KB tumor) is on record as 5.57 ± 0.76 Percentage of Injected 99mTc D. In the series with FR-positive KB tumors (setting [2]), the Tumor/Blood is listed as 17.0 ± 4.5, the Tumor/Kidney came out at 0.10 ± 0.01, the Tumor/Liver was found to be 3.0 ± 0.6 and the Tumor/Muscle was 7.7 ± 1.7.

On to `Nc1nc2ncc(CNc3ccc(C(=O)N[C@@H](CCC(=O)N[C@@H](CCC(=O)NC[C@@H]4[NH2+][99Tc-]56(=[O])[S]C[C@@H](C(=O)O)[N]5C(=O)[C@H](CC(=O)O)[N]6C4=O)C(=O)O)C(=O)O)cc3)nc2c(=O)[nH]1` [^99mTc-EC11], for which the “accumulation in FR-positive KB tumors and kidneys on co-administration of free folate” value in the series on FR-positive KB tumors is recorded as “blocked”.

Turning to `Nc1nc2ncc(CNc3ccc(C(=O)N[C@@H](CCC(=O)NC[C@@H]4[NH2+][99Tc-]56(=[O])[S]C[C@@H](C(=O)O)[N]5C(=O)[C@H](CO)[N]6C4=O)C(=O)O)cc3)nc2c(=O)[nH]1` [^99mTc-EC13], the “accumulation in FR-positive KB tumors and kidneys on co-administration of free folate” value with FR-positive KB tumors is recorded as “blocked”.

For `Nc1nc2ncc(CNc3ccc(C(=O)N[C@@H](CCC(=O)NCCNC(=O)CN(CCN(CCN(CC(=O)[O-])CC(=O)[O-])CC(=O)[O-])CC(=O)[O-])C(=O)O)cc3)nc2c(=O)[nH]1.[111In]` [^111In-DTPA-Folate, reference compound], in the series on FR-positive M109 tumors (setting [3]), the Blood is 0.09 ± 0.04 % Injected Dose per Gram Tissue, the Heart is given as 0.06 ± 0.02 % Injected Dose per Gram Tissue, the Intestine is listed as 0.82 ± 0.14 % Injected Dose per Gram Tissue and the Kidney is 3.14 ± 1.96 % Injected Dose per Gram Tissue. For the same molecule, in the series on FR-positive M109 tumors (setting [3]), the Liver was 0.81 ± 0.03 % Injected Dose per Gram Tissue, the Lung is 0.09 ± 0.2 % Injected Dose per Gram Tissue, the Muscle is reported as 0.05 ± 0.04 % Injected Dose per Gram Tissue and the Spleen is on record as 1.46 ± 0.73 % Injected Dose per Gram Tissue. Moreover, in the series on FR-positive M109 tumors (setting [3]), the Stomach is 0.25 ± 0.20 % Injected Dose per Gram Tissue, the Tumor is 0.46 ± 0.42 % Injected Dose per Gram Tissue and the Tumor/Blood is 5.00 ± 4.60. Besides, in the series with FR-positive M109 tumors (setting [4]), the Blood was 0.21 ± 0.10 % Injected Dose per Gram Tissue, the Heart is 2.57 ± 0.82 % Injected Dose per Gram Tissue, the Intestine is listed as 1.87 ± 0.69 % Injected Dose per Gram Tissue and the Kidney is recorded as 191 ± 79.2 % Injected Dose per Gram Tissue. In the series on FR-positive M109 tumors (setting [4]), the Liver is 5.21 ± 2.63 % Injected Dose per Gram Tissue, the Lung was 1.72 ± 0.61 % Injected Dose per Gram Tissue, the Muscle is recorded as 1.19 ± 0.48 % Injected Dose per Gram Tissue and the Spleen is 3.30 ± 2.33 % Injected Dose per Gram Tissue. Also, in the series on FR-positive M109 tumors (setting [4]), the Stomach is on record as 1.62 ± 0.65 % Injected Dose per Gram Tissue and the Tumor/Blood was found to be 102 ± 43.4.
